From the OligoGym collection
Values joined by “and” are separate entries in the source; they are usually repeats but may differ in a detail not shown here. Equal entries are not always repeated. After the bases stand the sugars from the 5' end (letter, count) and the backbone: PS all phosphorothioate, else s phosphorothioate and o phosphodiester by linkage. Methylation of C is not given here. e = 2'-O-(2-methoxyethyl) (MOE); d = 2'-deoxy (DNA)

Target: DGAT2
Conditions: ASO

Sequence	target mRNA inhibition (HepG2, 0.12 µM)	target mRNA inhibition (HepG2, 2.5 µM)	target mRNA inhibition (HepG2, 10 µM)	target mRNA inhibition (HepG2, 20 µM)
GCTTACCAACAGTGGTGATG (sugars e5 d10 e5, PS)	21%	–	–	–
AGCAGGTTGTGTGTCTTCAC (sugars e2 d13 e5, PS)	44%	–	–	–
GGTGACTGCATTCTTGCCAG (sugars e5 d10 e5, PS)	25%	–	–	–
GGCAGGGCTTAGAATGGCTA (sugars e5 d10 e5, PS)	48%	–	–	–
AACTGAGATCTCCAGCAGCA (sugars e5 d10 e5, PS)	–	91% and 78%	94% and 96%	–
TTAGCTCTCAGTGAAGCTGG (sugars e5 d10 e5, PS)	–	93%	82%	–
GTTCTTGGGCCTAAAGGTGA (sugars e5 d10 e5, PS)	34%	–	–	–
AAGGCACCTGTTACTACATG (sugars e5 d10 e5, PS)	–	67%	93%	–
CTCTCCAACTCCTCCCCTTG (sugars e5 d10 e5, PS)	25%	–	–	–
AGTTTCGGACCCACTGTGAC (sugars e2 d13 e5, PS)	64%	–	–	–
CACCAGGGCCTCCATGTACA (sugars e3 d14 e3, PS)	41%	–	–	–
TGTAATGGTTTAGCAAAATT (sugars e5 d10 e5, PS)	26%	–	–	–
CCACCTTCCAGGGAATAAAA (sugars e5 d10 e5, PS)	22%	–	–	–
GGTGGTTGCAATGTTGCCAT (sugars e5 d10 e5, PS)	–	90% and 76%	93% and 90%	–
CATTGCCACCCCCATCCTCA (sugars e5 d10 e5, PS)	9%	–	–	–
CGTGAGCTGGTGTTCTACAA (sugars e5 d10 e5, PS)	–	59%	74%	–
GGCATGGAGCTCAGAGACTC (sugars e5 d10 e5, PS)	77%	25%	76%	49%
TCCAGACTGGATTTACTGAA (sugars e5 d10 e5, PS)	60%	–	–	–
TCTGGACCCATCGGCCCCAG (sugars e5 d10 e5, PS)	20%	–	–	–
ACTCCCAGTACAAGGAAGGA (sugars e5 d10 e5, PS)	3%	–	–	–
TATCCAAAGATATAGTTCCT (sugars e5 d10 e5, PS)	13%	–	–	–
AGGACCCACTGGAGCACTGA (sugars e3 d14 e3, PS)	82%	16%	38%	53%
GTTTCCTTTGAAATCCAATG (sugars e5 d10 e5, PS)	–	69% and 68%	90% and 81%	–

Sequence	target mRNA inhibition (HepG2, 0.12 µM)	target mRNA inhibition (HepG2, 2.5 µM)	target mRNA inhibition (HepG2, 10 µM)	target mRNA inhibition (HepG2, 20 µM)
TTTGGAACTAATCTGCTGCT (sugars e5 d10 e5, PS)	50%	–	–	–
CACTAAATTAGGAAGCTGGG (sugars e5 d10 e5, PS)	–	81% and 82%	83% and 85%	–
GTCACCTCTTCCAGGAAGAC (sugars e5 d10 e5, PS)	–	83% and 73% and 76%	92% and 88%	–
AGCAGGTTGTGTGTCTTCAC (sugars e3 d14 e3, PS)	63%	–	–	–
AGCTCAGAGACTCAGCCGCA (sugars e5 d10 e5, PS)	–	38% and 44% and 55%	78% and 86%	89% and 97%
GCTCAGAGACTCAGCCGCAC (sugars e2 d13 e5, PS)	82%	13%	35%	66%
TCTTTGAAAGCAAATAGTCT (sugars e5 d10 e5, PS)	40%	–	–	–
TGGATAGTCGATTTACCAGA (sugars e5 d10 e5, PS)	–	62%	90%	–
GGGCAGTCCTTTCCCCTGCA (sugars e5 d10 e5, PS)	37%	–	–	–
TGGCACTAAGCTAGGCACAC (sugars e5 d10 e5, PS)	62%	–	–	–
CGCGATTCACTGAGGAC (sugars e3 d10 e4, PS)	–	73% and 74%	–	–
TGGACCCATCGGCCCCAGGA (sugars e5 d10 e5, PS)	52%	–	–	–
ATCTCAGTCACTGACTCACA (sugars e5 d10 e5, PS)	–	46%	95%	–
AGATATAGTTCCTGGTGGTC (sugars e5 d10 e5, PS)	56%	–	–	–
TTCCTTTGAAATCCAATGCA (sugars e5 d10 e5, PS)	–	63%	86%	–
GGATGCTGGATCCAGTGCCC (sugars e5 d10 e5, PS)	32%	–	–	–
GTGCTCTGTGGGCTCCTCCA (sugars e5 d10 e5, PS)	–	69%	83%	–
CAGGTAAGGCCGTATGCCTG (sugars e5 d10 e5, PS)	63%	–	–	–
TGTCCTTATCAAAATCCCTC (sugars e5 d10 e5, PS)	38%	–	–	–
TCCTGGTGGTCAGCAGGTTG (sugars e5 d10 e5, PS)	58%	–	–	–
CAGGTCCTCCGTGAGAGCGC (sugars e5 d10 e5, PS)	29%	–	–	–
AAGCCTCGGTGTCCTCTCCT (sugars e5 d10 e5, PS)	–	50%	87%	–
